Assay results as given in patent publication US8357634B2, “N-alkoxycarboxamides and their use as microbiocides” (Syngenta Crop Protection LLC, priority 2009, dated 2013).

Experiments:
[1] = tested on: Botrvtis cinerea; assay: Example B-1: Action against Botrytis cinerea, fungal growth assay; type: cell-based; conditions: 0.002% active ingredient, PDB broth, 24° C., photometric after 3-4 days
Method: (§1) Action against Botrvtis cinerea—fungal growth assay Conidia of the fungus from cryogenic storage was directly mixed into nutrient broth (PDB potato dextrose broth). After placing a (DMSO) solution of the test compounds (0.002% active ingredient) into a microtiter plate (96-well format) the nutrient broth containing the fungal spores was added. The test plates were incubated at 24° C. and the inhibition of growth was measured photometrically after 3-4 days. The activity of a compound was expressed as fungal growth inhibition (0=no growth inhibition, ratings of 80% to 99% mean good to very good inhibition, 100%=complete inhibition).

[2] = tested on: Septoria tritici; assay: Example B-3: Action against Septoria tritici, fungal growth assay; type: cell-based; conditions: Zymoseptoria tritici; 0.002% active ingredient; PDB broth, 24° C., photometric after 72 hrs
Method: as §1, with “Action Against Septoria tritici—Fungal Growth Assay” for “Action against Botrvtis cinerea—fungal growth assay”, “storage were” for “storage was”, “was determined” for “was measured”, “after 72 hrs.” for “after 3-4 days.”

[3] = tested on: Monographella nivalis (anamorph: Fusarium nivale, Microdochium nivale); assay: Example B-4: Action against Monographella nivalis, fungal growth assay; type: cell-based; conditions: 0.002% active ingredient, PDB broth, 24° C., photometric after 72 hrs
Method: Action Against Monographella nivalis (anamorph: Fusarium nivale, Microdochium nivale; Snow Mould)—Fungal Growth Assay Conidia of the fungus from cryogenic storage were directly mixed into nutrient broth (PDB potato dextrose broth). After placing a DMSO-solution of the test compounds (0.002% active ingredient) into a microtiter plate (96-well format) the nutrient broth containing the fungal spores was added. The test plates were incubated at 24° C. and the inhibition of growth was measured photometrically after 72 hrs (0=no growth inhibition, ratings of 80% to 99% mean good to very good inhibition, 100%=complete inhibition).

[4] = tested on: Erysiphe graminis f. sp. tritici; assay: Example B-5: Action against Erysiphe graminis f. sp. tritici (wheat powdery mildew), wheat leaf segments; type: in vivo; conditions: Blumeria graminis, foliar, 168 h, 0.02% active ingredient, 7 days after inoculation, read-out: preventive fungicidal activity (inhibition)
Method: Action Against Erysiphe graminis f. sp. tritici (Wheat Powdery Mildew) Wheat leaf segments were placed on agar in multiwell plates (24-well format) and sprayed with test solutions (0.02% active ingredient). After drying, the leaf disks were inoculated with a spore suspension of the fungus. After appropriate incubation the activity of a compound was assessed 7 days after inoculation as preventive fungicidal activity.

[5] = tested on: Botryotinia fuckeliana (Botrytis cinerea); assay: Example B-14: Botryotinia fuckeliana (Botrytis cinerea) / liquid culture (comparative); type: cell-based; conditions: 24° C., photometric after 3-4 days, read-out: inhibition of growth
Method: Botryotinia fuckeliana (Botrytis cinerea)/Liquid Culture (Gray Mould) Conidia of the fungus from cryogenic storage were directly mixed into nutrient broth. After placing a (DMSO) solution of the test compounds into a microtiter plate (96-well format) the nutrient broth containing the fungal spores was added. The test plates were incubated at 24° C. and the inhibition of growth is determined photometrically after 3-4 days.

CON(C(=O)c1cn(C)nc1C(F)F)C(C)c1ccc(Cl)cc1Cl (stereo not shown) [Compound 1.023]
inhibition at 0.002 % strength [1]: ≥ 80%
inhibition at 0.002 % strength [2]: ≥ 80%
inhibition at 0.002 % strength [3]: ≥ 50%
inhibition at 0.02 % strength [4]: ≥ 80%
inhibition at 20 ppm ([5]; 20 ppm): 20%
inhibition at 60 ppm ([5]; 60 ppm): 100%
inhibition at 200 ppm ([5]; 200 ppm): 100%
